Reference: patent US20120195837A1, “TIN(II)-2-HYDROXYCARBOXYLATES” (HONEYWELL INTERNATIONAL INC., priority 2011, published 2012)

What was measured:
[1] = Oral care application of formulated dentifrice or oral wash; format: in vivo; details: formulated as oral dentifrice or oral wash
Excerpt: A sample of tin(II) L-lactate (Example 2) is formulated as an oral dentifrice or oral wash, using additives and methods as known in the art.

[2] = Physical properties of the solid (hygroscopicity, flow); format: physicochemical; details: versus stannous chloride dihydrate
Excerpt: Thus, tin(II) lactate is observed to be a non-hygroscopic, and therefore an easily handlable free-flowing powder. In addition, tin(II) lactate is observed to be non-corrosive.
In addition, tin(II) lactate is observed to be non-corrosive toward standard industrial equipment.

## C[C@H](O)C(=O)[O-].C[C@H](O)C(=O)[O-].[Sn+2] [tin(II) L-lactate, Tin(II) L-lactate]
[1]; applied for about 5 to about 10 minutes
  retention of Sn(II) ion on oral surfaces: successfully results in retention of Sn(II) ion on oral surfaces
[1]; compared with a control group which lacks the Sn(II) application
  plaque formation and/or dental caries: reduces plaque formation and/or dental caries

## CC(O)C(=O)[O-].CC(O)C(=O)[O-].[Sn+2] (stereo not drawn) [tin(II) lactate, Tin(II) Lactate]
[2]
  hygroscopicity / powder behaviour: non-hygroscopic, free-flowing powder
